What all share (assay type): cell-based
One assay relates to HCC827 cells. As to the kind of experiment: Cell growth inhibition (CellTiter-Glo, 3 days) in HCC827. The note with it: Homo sapiens, 72 h, 3 days after administration. The method in brief: (§1)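 HCC827 cells were plated at 5000 cells/well in RPMI with 10% FBS, and A431 cells at the same density in DMEM with 10% FBS. After overnight attachment, compounds were added at various concentrations. Luminescence was recorded after plates were equilibrated to room temperature and incubated 10 min with reagent.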
For orientation: In ATP-based viability assays light output follows the ATP content of the culture.

Assay [1] relates to HCC827-SVD cells (human EGFR exon 20 insertion mutant D770_N771 insSVD). The experiment in a line: Cell growth inhibition (CellTiter-Glo, 3 days) in HCC827-SVD. To be noted: 72 h, 3 days after administration. In a few lines: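 HCC827 cells carrying lentiviral codon-optimized EGFR D770_N771 insSVD, with endogenous EGFR knocked out by CRISPR (single clone), seeded at 5000 cells/well in RPMI with 10% FBS. Viability read by CellTiter-Glo luminescence.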

Assay [2] deals with HCC827-ASV cells (human EGFR exon 20 insertion mutant A769_D770insASV). As to the kind of experiment: Cell growth inhibition (CellTiter-Glo, 3 days) in HCC827-ASV. To be noted: 72 h, 3 days after administration. In a few lines:
(§2)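 Growth inhibition used a CellTiter-Glo luminescence read-out after 3 days of compound exposure at various concentrations. Cells were plated the day before at 5000/well in RPMI plus 10% FBS. The lines are HCC827 transduced by lentivirus with codon-optimized EGFR ASV or ERBB2 YVMA exon 20 insertions.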

In assay [3] the test system is HCC827-YVMA cells (human ERBB2 exon20 insertion mutant A775_G776ins YVMA). As to the kind of experiment: Cell growth inhibition (CellTiter-Glo, 3 days) in HCC827-YVMA. To be noted: 72 h, 3 days after administration. In a few lines: as §2
In the next assay the test system is A431 cells. As to the kind of experiment: Cell growth inhibition (CellTiter-Glo, 3 days) in A431. To be noted: Homo sapiens, A-431, 72 h, 3 days after administration. In a few lines: as §1

Structures are written as SMILES.

`C=CC(=O)N1CCC(Nc2cc3c(Nc4ccc(Oc5ccn(-c6ccc(C)nn6)n5)cc4F)ncnc3cc2OC)CC1` [Example 29, 1-(4-((4-((2-fluoro-4-((1-(6-methylpyridazin-3-yl)-1H-pyrazol-3-yl)oxy)phenyl)amino)-7-methoxyquinazolin-6-yl)amino)piperidin-1-yl)prop-2-en-1-one]: the GI50 with HCC827 cells is under 30 nM; in assay [1], under 30 nM; in assay [2] it was under 30 nM; in assay [3], under 30 nM; in the assay on A431 cells it was at least 1000 nM.

For `C=CC(=O)N1CCC(Nc2cc3c(Nc4ccc(Oc5ccn(-c6cc(OC)ncn6)n5)cc4F)ncnc3cc2OC)CC1` [Example 30, 1-(4-((4-((2-fluoro-4-((1-(6-methoxypyrimidin-4-yl)-1H-pyrazol-3-yl)oxy)phenyl)amino)-7-methoxyquinazolin-6-yl)amino)piperidin-1-yl)prop-2-en-1-one], the GI50 was 100 to 300 nM in the assay on HCC827 cells; 30 to 60 nM in assay [1]; under 30 nM in assay [2]; under 30 nM in assay [3]; 300 to 600 nM in the assay with A431 cells.

In the case of `C=CC(=O)N1CCC(Nc2cc3c(Nc4ccc(Oc5nc(-c6cnc(C)nc6)cs5)cc4F)ncnc3cc2OC)CC1` [Example 32, 1-(4-((4-((2-fluoro-4-((4-(2-methylpyrimidin-5-yl)thiazol-2-yl)oxy)phenyl)amino)-7-methoxyquinazolin-6-yl)amino)piperidin-1-yl)prop-2-en-1-one], the GI50 was 60 to 100 nM in the assay on HCC827 cells; under 30 nM in assay [1]; under 30 nM in assay [2]; under 30 nM in assay [3]; 100 to 300 nM in the assay with A431 cells.

Take `C=CC(=O)N1CCC(Nc2cc3c(Nc4ccc(Oc5ccn(-c6cnc(C)cn6)n5)cc4F)ncnc3cc2OC)CC1` [Example 33, 1-(4-((4-((2-fluoro-4-((1-(5-methylpyrazin-2-yl)-1H-pyrazol-3-yl)oxy)phenyl)amino)-7-methoxyquinazolin-6-yl)amino)piperidin-1-yl)prop-2-en-1-one]: the GI50 in the assay on HCC827 cells was in the range of 300 to 600 nM; in assay [1] it was 100 to 300 nM; in assay [2] it was 60 to 100 nM; in assay [3], 100 to 300 nM; in the assay on A431 cells, 100 to 300 nM.

`C=CC(=O)N1CCC(Nc2cc3c(Nc4ccc(Oc5ccn(-c6cnc(C)c(C)c6)n5)cc4F)ncnc3cc2OC)CC1` [Example 36, 1-(4-((4-((4-((1-(5,6-dimethylpyridin-3-yl)-1H-pyrazol-3-yl)oxy)-2-fluorophenyl)amino)-7-methoxyquinazolin-6-yl)amino)piperidin-1-yl)prop-2-en-1-one]: the GI50 in the assay with HCC827 cells fell in the range of 60 to 100 nM; in assay [1], 30 to 60 nM; in assay [2], 60 to 100 nM; in assay [3], 60 to 100 nM; in the assay with A431 cells, 30 to 60 nM.

In the case of `C=CC(=O)N1CCC(Nc2cc3c(Nc4ccc(Oc5ccn(-c6cnc(C)cc6C)n5)cc4F)ncnc3cc2OC)CC1` [Example 37, 1-(4-((4-((4-((1-(4,6-dimethylpyridin-3-yl)-1H-pyrazol-3-yl)oxy)-2-fluorophenyl)amino)-7-methoxyquinazolin-6-yl)amino)piperidin-1-yl)prop-2-en-1-one], the GI50 in the assay with HCC827 cells is 30 to 60 nM; in assay [1], under 30 nM; in assay [2], under 30 nM; in assay [3] it was under 30 nM; in the assay with A431 cells, 300 to 600 nM.

As for `C=CC(=O)N1CCC(Nc2cc3c(Nc4ccc(Oc5ccn(-c6cnc(C)c(OC)c6)n5)cc4F)ncnc3cc2OC)CC1` [Example 38, 1-(4-((4-((2-fluoro-4-((1-(5-methoxy-6-methylpyridin-3-yl)-1H-pyrazol-3-yl)oxy)phenyl)amino)-7-methoxyquinazolin-6-yl)amino)piperidin-1-yl)prop-2-en-1-one], the GI50 in the assay with HCC827 cells lay within 100 to 300 nM; in assay [1] it was 30 to 60 nM; in assay [2] it was 30 to 60 nM; in assay [3], 30 to 60 nM; in the assay on A431 cells, 30 to 60 nM.

For `C=CC(=O)N1CCC(Nc2cc3c(Nc4ccc(Oc5ccnc(-n6cc(C)cn6)n5)cc4F)ncnc3cc2OC)CC1` [Example 39, 1-(4-((4-((2-fluoro-4-((2-(4-methyl-1H-pyrazol-1-yl)pyrimidin-4-yl)oxy)phenyl)amino)-7-methoxyquinazolin-6-yl)amino)piperidin-1-yl)prop-2-en-1-one], the GI50 in the assay on HCC827 cells was 60 to 100 nM; in assay [1], under 30 nM; in assay [2] it was under 30 nM; in assay [3] it was under 30 nM; in the assay with A431 cells, 300 to 600 nM.

Regarding `C=CC(=O)N1CCC(Nc2cc3c(Nc4ccc(Oc5ccnc(-c6cncs6)c5)cc4F)ncnc3cc2OC)CC1` [Example 42, 1-(4-((4-((2-fluoro-4-((2-(thiazol-5-yl)pyridin-4-yl)oxy)phenyl)amino)-7-methoxyquinazolin-6-yl)amino)piperidin-1-yl)prop-2-en-1-one], the GI50 in the assay with HCC827 cells is at least 1000 nM; in assay [1], 600 to 1000 nM; in assay [2], 300 to 600 nM; in assay [3], 600 to 1000 nM; in the assay on A431 cells it was at least 1000 nM.

On to `C=CC(=O)N1CCC(Nc2cc3c(Nc4ccc(Oc5ccnc(-c6nccs6)c5)cc4F)ncnc3cc2OC)CC1` [Example 43, 1-(4-((4-((2-fluoro-4-((2-(thiazol-2-yl)pyridin-4-yl)oxy)phenyl)amino)-7-methoxyquinazolin-6-yl)amino)piperidin-1-yl)prop-2-en-1-one], for which the GI50 in the assay on HCC827 cells was 60 to 100 nM; in assay [1], under 30 nM; in assay [2] it was under 30 nM; in assay [3], under 30 nM; in the assay with A431 cells it was 300 to 600 nM.

As for `C=CC(=O)N1CCC(Nc2cc3c(Nc4ccc(Oc5ccnc(-c6ccn[nH]6)c5)cc4F)ncnc3cc2OC)CC1` [Example 45, 1-(4-((4-((4-((2-(1H-pyrazol-5-yl)pyridin-4-yl)oxy)-2-fluorophenyl)amino)-7-methoxyquinazolin-6-yl)amino)piperidin-1-yl)prop-2-en-1-one], the GI50 was 100 to 300 nM with HCC827 cells; 60 to 100 nM in assay [1]; under 30 nM in assay [2]; 60 to 100 nM in assay [3]; 300 to 600 nM with A431 cells.

Take `C=CC(=O)N1CCC(Nc2cc3c(Nc4ccc(Oc5ccn(-c6ccnc(OC)n6)n5)cc4F)ncnc3cc2OC)CC1` [Example 47, 1-(4-((4-((2-fluoro-4-((1-(2-methoxypyrimidin-4-yl)-1H-pyrazol-3-yl)oxy)phenyl)amino)-7-methoxyquinazolin-6-yl)amino)piperidin-1-yl)prop-2-en-1-one]: the GI50 with HCC827 cells was 30 to 60 nM; in assay [1], 30 to 60 nM; in assay [2], under 30 nM; in assay [3], under 30 nM; in the assay with A431 cells it was 300 to 600 nM.

In the case of `C=CC(=O)N1CCC(Nc2cc3c(Nc4ccc(Oc5ccn(-c6ccc(N(C)C)nn6)n5)cc4F)ncnc3cc2OC)CC1` [Example 48, 1-(4-((4-((4-((1-(6-(dimethylamino)pyridazin-3-yl)-1H-pyrazol-3-yl)oxy)-2-fluorophenyl)amino)-7-methoxyquinazolin-6-yl)amino)piperidin-1-yl)prop-2-en-1-one], the GI50 with HCC827 cells is 60 to 100 nM; in assay [1], 30 to 60 nM; in assay [2], 30 to 60 nM; in assay [3], 30 to 60 nM; in the assay on A431 cells, 60 to 100 nM.

Consider `C=CC(=O)N1CCC(Nc2cc3c(Nc4ccc(Oc5ccn(-c6ccc(OC)nn6)n5)cc4F)ncnc3cc2OC)CC1` [Example 50, 1-(4-((4-((2-fluoro-4-((1-(6-methoxypyridazin-3-yl)-1H-pyrazol-3-yl)oxy)phenyl)amino)-7-methoxyquinazolin-6-yl)amino)piperidin-1-yl)prop-2-en-1-one], for which the GI50 with HCC827 cells lay within 60 to 100 nM; in assay [1], 30 to 60 nM; in assay [2], 30 to 60 nM; in assay [3], 30 to 60 nM; in the assay on A431 cells, 100 to 300 nM.

`C=CC(=O)N1CCC(Nc2cc3c(Nc4ccc(Oc5nc(-c6cnc(OC)nc6)cs5)cc4F)ncnc3cc2OC)CC1` [Example 53, 1-(4-((4-((2-fluoro-4-((4-(2-methoxypyrimidin-5-yl)thiazol-2-yl)oxy)phenyl)amino)-7-methoxyquinazolin-6-yl)amino)piperidin-1-yl)prop-2-en-1-one]: the GI50 in the assay with HCC827 cells is 30 to 60 nM; in assay [1], under 30 nM; in assay [2], under 30 nM; in assay [3], under 30 nM; in the assay on A431 cells, 100 to 300 nM.

Take `C=CC(=O)N1CCC(Nc2cc3c(Nc4ccc(Oc5ccn(-c6cnc(OC)nc6)n5)c(F)c4)ncnc3cc2OC)CC1` [Example 54, 1-(4-((4-((3-fluoro-4-((1-(2-methoxypyrimidin-5-yl)-1H-pyrazol-3-yl)oxy)phenyl)amino)-7-methoxyquinazolin-6-yl)amino)piperidin-1-yl)prop-2-en-1-one]: the GI50 in the assay with HCC827 cells is under 30 nM; in assay [1], under 30 nM; in assay [2], under 30 nM; in assay [3], under 30 nM; in the assay with A431 cells it was 100 to 300 nM.

Consider `C=CC(=O)N1CCC(Nc2cc3c(Nc4ccc(Oc5nc(-c6ccc(OC)nc6)cs5)cc4F)ncnc3cc2OC)CC1` [Example 55, 1-(4-((4-((2-fluoro-4-((4-(6-methoxypyridin-3-yl)thiazol-2-yl)oxy)phenyl)amino)-7-methoxyquinazolin-6-yl)amino)piperidin-1-yl)prop-2-en-1-one], for which the GI50 in the assay with HCC827 cells is under 30 nM; in assay [1] it was under 30 nM; in assay [2], under 30 nM; in assay [3], under 30 nM; in the assay on A431 cells, 100 to 300 nM.

For orientation: GI50 means the concentration that inhibits growth by half. Low values mean greater sensitivity of the cells, high ones lower sensitivity of the cells.

Values taken from US20240398805A1, “QUINAZOLINE DERIVED COMPOUNDS AS EGFR INHIBITORS AND THEIR USES THEREOF” (ACCUTAR BIOTECHNOLOGY INC., priority 2021, published 2024).
